Values of other authors in US20170202789A1, “METHODS AND RELATED COMPOSITIONS FOR IMPROVED DRUG BIOAVAILABILITY AND DISEASE TREATMENT” (priority 2014, published 2017).

Columns and labels:
[1] = test system: Na/K ATPase
[2] = caffeine 160 mg drink prior to cycling time trial, p<0.01
[3] = co-administration with carbohydrate drink, depending on dose and frequency
[4] = 3 mg/kg one hour prior to running, p<0.05
[5] = 400 mg, untrained individuals
[6] = 6 mg/kg + maintenance doses, with 7% carbohydrate drink
[7] = doses of 6-9 mg/kg

Compound | concentration at which formation of EP is inhibited [1] | reduction of time to complete the trial [2] [%] | increase in performance [3] | improvement in performance compared to placebo [4] [%] | effect on bench press, leg extension strength or cycle ergometry [5] | difference in performance with versus without caffeine [6] | cognitive function before exercise (energy drink with caffeine, low dose) | cognitive function after exercise (low and medium dose caffeine containing energy drinks) | adverse effects [7]
[O]=[V]([O-])([O-])[O-] [vanadate] | less than 1 micromolar | – | – | – | – | – | – | – | –
Cn1c(=O)c2c(ncn2C)n(C)c1=O [caffeine] | – | ~5 | 2-3% | 1.2 | did not have any positive effects | No differences were noted | improved long term memory | improved all cognitive tests | jitters, increased heart rate, and a diminution in exercise performance
